Results on 24 compounds are retold here after patent US7332623B2 (Kaohsiung Medical University, priority 2003, dated 2008).

The test system of data set [1] is Breast cancer cell MCF-7. The experiment in a line: Preliminary cytotoxicity test. In kind it is cell-based, human.
The test system of data set [2] is Non-small cell Lung cancer cell NCI-H460. The experiment in a line: Preliminary cytotoxicity test. The format is cell-based, human.
For data set [3], the system named is CNS cancer cell SF-268. The experiment in a line: Preliminary cytotoxicity test. In kind it is cell-based, human.
Data set [4] concerns KB cell. The following applies: Table 1; cited from earlier work.
Data set [5] relates to Hep2,2,15. The conditions noted are these: Hep2,2,15, Table 1; cited from earlier work.
Data set [6] has as its target T1, topoisomerase I (Homo sapiens, UniProt P11387).
T1 sequence (P11387 1-765): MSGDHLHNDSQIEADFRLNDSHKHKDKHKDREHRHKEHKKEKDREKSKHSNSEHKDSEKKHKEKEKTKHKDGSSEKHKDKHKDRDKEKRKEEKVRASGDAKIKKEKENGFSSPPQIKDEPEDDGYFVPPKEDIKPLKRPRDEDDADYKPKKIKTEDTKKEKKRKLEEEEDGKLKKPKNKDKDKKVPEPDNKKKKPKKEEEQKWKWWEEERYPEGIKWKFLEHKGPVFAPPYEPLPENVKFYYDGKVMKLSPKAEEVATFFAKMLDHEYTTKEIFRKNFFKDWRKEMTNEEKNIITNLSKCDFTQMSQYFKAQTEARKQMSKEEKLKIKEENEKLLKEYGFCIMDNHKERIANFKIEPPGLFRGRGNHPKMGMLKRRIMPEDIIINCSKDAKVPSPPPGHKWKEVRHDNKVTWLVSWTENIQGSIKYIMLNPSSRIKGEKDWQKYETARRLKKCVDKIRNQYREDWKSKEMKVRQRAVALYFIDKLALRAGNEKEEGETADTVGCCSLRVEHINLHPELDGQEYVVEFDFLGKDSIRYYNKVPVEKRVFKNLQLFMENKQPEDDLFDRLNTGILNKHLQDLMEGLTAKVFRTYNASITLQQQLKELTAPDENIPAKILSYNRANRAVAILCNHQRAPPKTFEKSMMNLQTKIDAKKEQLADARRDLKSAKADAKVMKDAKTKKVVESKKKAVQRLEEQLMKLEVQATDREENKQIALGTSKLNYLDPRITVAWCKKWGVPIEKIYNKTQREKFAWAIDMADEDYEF
The experiment in a line: Topoisomerase I assay, cleavage of supercoiled pGEM9zf(−) DNA, gel electrophoresis. The format is biochemical. The conditions noted are these: for topo I inhibitor, overall conclusion: from FIGS. 1 and 2.

For data set [7], the system named is NCI (NCI-H661): human lung large cell carcinoma. The experiment in a line: In vitro anticancer assay (cytotoxicity), solid tumor cells.
In data set [8] the test system is K-562 cells. The experiment in a line: Cell cycle distribution by flow cytometry. The format is cell-based, human. The following applies: K-562, 72 hrs. Background: In flow cytometry, cells or beads pass a laser one at a time.
Experimental: Samples of 1×10^6 Hep G2 cells were plated on a 6 cm tissue culture dish, and the cells were allowed to recover 24 hrs before any treatment. Thereafter, DMSO or a test compound (1 μM, 10 μM or 50 μM) was added to the cells for 1 hr in complete medium at 37° C., washed twice with PBS, and incubated in fresh media for the incubation time. Cell were harvested with trypsin and washed twice with PBS. Samples were fixed in 70% ethanol and stored at 4° C. for at least 24 hrs and then washed once with McIlvaine's buffer (0.2M Na2HPO4, 0.1M citric acid, pH=7.5) and once again with PBS. Samples were stained with PI (propidium iodide) staining solution (PBS containing 100 μg/ml, RNase A and 10 μg/ml PI [Sigma]), processed on a Coulter Elite flow cytometry, and the data analyzed with the Mutiplus AV program.
The subject of data set [9] is Leukemia cell lines. The experiment in a line: NCI panel, average of cell lines. The following applies: Homo sapiens, read-out: cytotoxicity GI50, average value of all the cancer cell lines.
The test system of data set [10] is Non-Small Cell Lung Cancer cell lines. The experiment in a line: NCI panel, average of cell lines. The following applies: Homo sapiens, read-out: cytotoxicity GI50, average value of all the cancer cell lines.
The test system of data set [11] is Colon Cancer cell lines. The experiment in a line: NCI panel, average of cell lines. The following applies: Homo sapiens, read-out: cytotoxicity GI50, average value of all the cancer cell lines.
Data set [12] relates to CNS Cancer cell lines. The experiment in a line: NCI panel, average of cell lines. The following applies: Homo sapiens, read-out: cytotoxicity GI50, average value of all the cancer cell lines.
For data set [13], the system named is Melanoma cell lines. The experiment in a line: NCI panel, average of cell lines. The conditions noted are these: Homo sapiens, read-out: cytotoxicity GI50, average value of all the cancer cell lines.
The subject of data set [14] is Ovarian Cancer cell lines. The experiment in a line: NCI panel, average of cell lines. The conditions noted are these: Homo sapiens, read-out: cytotoxicity GI50, average value of all the cancer cell lines.
For data set [15], the system named is Renal Cancer cell lines. The experiment in a line: NCI panel, average of cell lines. The conditions noted are these: Homo sapiens, read-out: cytotoxicity GI50, average value of all the cancer cell lines.
Data set [16] has as its system Prostate Cancer cell lines. The experiment in a line: NCI panel, average of cell lines. The conditions noted are these: Homo sapiens, read-out: cytotoxicity GI50, average value of all the cancer cell lines.
Data set [17] relates to Breast Cancer cell lines. The experiment in a line: NCI panel, average of cell lines. The conditions noted are these: Homo sapiens, read-out: cytotoxicity GI50, average value of all the cancer cell lines.
For data set [18], the system named is Hela: human cervix epitheloid carcinoma. The experiment in a line: In vitro anticancer assay (cytotoxicity), solid tumor cells.
Data set [19] deals with KB: human oral epidermoid carcinoma. The description is as above.

pIC50: −log10 of the molar value. “Also recorded” adds a separate entry of the source. Where two headings read alike, the source gives them in different places. Marks after values point to notes of the source that are not given here.

Take `N#Cc1ccccc1C#CC=CC#Cc1ccc(N)cc1` [Compound 33, 2-[6-(p-anilinyl)-3-hexen-1,5-diynyl]benzonitrile]: the Growth percentage in data set [1] came to 100%; in data set [2] it was 94%; in data set [3] it was 92%.
Take `CCCCCC#C/C=C\C#Cc1ccccc1C#N` [Compound 4, 2-(3(Z)-Undecen-1,5-diynyl)benzonitrile]: the results for the pIC50 in data set [4] and in data set [5] were over 8.00 and under 5.00, respectively.
On to `CCCCCCC#C/C=C\C#Cc1ccc(-c2ccc(C#C/C=C\C#CCCCCCC)cc2)cc1` [Compound 12, 4,4′-Bis-(3-(Z)-Dodecen-1,5-diynyl)biphenyl], for which the “topo I inhibitor, overall conclusion” value in [6] was “not topo I inhibitors”.
For the compound `N#Cc1ccccc1C#CC=CC#Cc1cccs1` [Compound 29, 2-(6-(2-thienyl)-3-hexen-1,5-diynyl)benzonitrile], the values for the Growth percentage in [1], in data set [2] and in [3] were 49%, 34% and 96%, respectively.
In the case of `N#Cc1ccccc1C#Cc1ccccc1C#CCOC1CCCCO1` (stereo not shown) [Compound 7, 2-(2-(3-Tetrahydro-pyranyl-5-oxy-1-propynylphenyl)ethynyl)benzonitrile], the “inhibition of topo I” value is on record as “untwisting DNA was revealed” in data set [6] (0.87 μM compound), “no Topo I inhibition; also recorded: untwisting DNA was revealed” in data set [6] (8.7 μM compound) and “no Topo I inhibition; also recorded: untwisting DNA was revealed” in [6] (87 μM compound). Moreover, the “IC50 Values of Cytotoxicities” value in data set [7] is recorded as “— (“—” means IC50 > 20 μg/ml)”.
Consider `N#Cc1ccccc1C#Cc1ccccc1C#CCCCOC1CCCCO1` (stereo not shown) [Compound 8], for which the “inhibition of topo I” value in data set [6] (0.87 μM compound) is listed as “untwisting DNA was revealed”; in data set [6] (8.7 μM compound) it was “no Topo I inhibition; also recorded: untwisting DNA was revealed”; in data set [6] (87 μM compound), “no Topo I inhibition; also recorded: untwisting DNA was revealed”. Also, the “IC50 Values of Cytotoxicities” value in data set [7] was “— (“—” means IC50 > 20 μg/ml)”.
With `CCCCC#C/C=C\C#Cc1ccccc1` [Compound 6, (3Z)-Decen-1,5-diynylbenzene], in [6], the “topo I inhibitor, overall conclusion” value is “not Topo I inhibitors”.
For `CCCCC#C/C=C\C#Cc1ccccc1C#N` [Compound 3, 2-(3(Z)-Decen-1,5-diynyl)benzonitrile], the negative logarithm of the IC50 (pIC50) in data set [4] was over 8.00.
As to `CCCCCCC#C/C=C\C#Cc1ccccc1C(=O)O` [Compound 22, 2-(3-(Z)-Dodecen-1,5-diynyl)benzoate], the “IC50 Values of Cytotoxicities” value in data set [7] is recorded as “— (“—” means IC50 > 20 μg/ml)”.
As to `N#Cc1ccccc1C#CC=CC#Cc1cnccn1` [Compound 30, 2-(6-(2-pyrazinyl)-3-hexen-1,5-diynyl)benzonitrile], the Growth percentage is 73% in [1], 8* % in data set [2] and 84% in data set [3]. The “accumulation of G2/M stage cells” value in [8] is “an accumulation of G2/M stage cells”. Moreover, the GI50 was determined as 5.05 µM in [9]; 11.8 µM in [10]; 7.54 µM in data set [11]; 32.2 µM in data set [12]; 18.7 µM in [13]; 38.1 µM in [14]. Moreover, the values for the GI50 in data set [15], in [16] and in [17] were 27 µM, 33.6 µM and 33.3 µM, respectively.
With `Cc1ccc(C#CC=CC#Cc2ccccc2C#N)cc1` [Compound 28, 2-(6-(4-tolyl)-3-hexen-1,5-diynyl)benzonitrile], the Growth percentage in data set [1] came to 80%; in data set [2] it was 96%; in data set [3] it was 105%.
Regarding `CCCCCCC#C/C=C\C#Cc1cccc(C(F)(F)F)c1` [Compound 19, 3-(3-(Z)-Dodecen-1,5-diynyl)trifluoromethylbenzene], the “IC50 Values of Cytotoxicities” value in data set [18] is “— (“—” means IC50 > 20 μg/ml)”.
For the compound `FC(F)(F)c1ccc(C#Cc2ccccc2C#Cc2ccc(C(F)(F)F)cc2)cc1` [Compound 42], the Growth percentage in data set [1] came to 37%; in data set [2], 78%; in data set [3], 55%.
“2-(6-(2-xylenyl)-3-hexen-1,5-diyne)benzonitrile [Compound 24]”: the values for the Growth percentage in data set [1], in data set [2] and in data set [3] were 101%, 129% and 111%, respectively.
In the case of `CCCCCC#Cc1ccccc1C#Cc1ccccc1C#N` [Compound 10, 2-(2-(2-Heptynylphenyl)ethynyl)benzonitrile], the “IC50 Values of Cytotoxicities” value in data set [19] and in [18] was “— (“—” means IC50 > 20 μg/ml)” each time.
As for `N#Cc1ccccc1C#C/C=C\C#CCOC1CCCCO1` (stereo not shown) [Compound 1, 2-(7-(Tetrahydropyranyloxy)-3(Z)-hepten-1,5-diynyl)-benzonitrile], the pIC50 in [5] was under 5.00. Further, in data set [7], the “IC50 Values of Cytotoxicities” value is given as “—* (“—” means IC50 > 20 μg/ml)”.
Consider `COc1ccc(C#CC=CC#Cc2ccccc2C#N)cc1` [Compound 25], for which the Growth percentage in data set [1] came to 90%; in data set [2], 48%; in data set [3], 91%.
For “2-(6-(2-thioanisyl)-3-hexen-1,5-diynyl)benzonitrile [Compound 31]”, the values for the Growth percentage in data set [1], in data set [2] and in [3] were 62%, 100% and 164%, respectively.
Consider `CC[C@@]1(O)C(=O)OCc2c1cc1n(c2=O)Cc2cc3ccccc3nc2-1` [camptothecin, reference compound], for which the “inhibition of topo I” value in data set [6] is “less topo I inhibitory activity; also recorded: observable inhibition of topo I”.
With `CCCCCCC#C/C=C\C#Cc1ccc([N+](=O)[O-])cc1` [Compound 21, 4-nitro-1-(3-(Z)-dodecen-1,5-diynyl)benzene], the IC50 in data set [19] (Homo sapiens, read-out: IC50 Values of Cytotoxicities) is over 20 µg/mL.
Turning to `CCCCCCC#C/C=C\C#Cc1ccc(C#C/C=C\C#CCCCCCC)cc1` [Compound 11, 1,4-Bis-(3-(Z)-Dodecen-1,5-diynyl)benzene], the “topo I inhibitor, overall conclusion” value in [6] is listed as “not topo I inhibitors”.
Consider `CCCCC#Cc1ccccc1C#Cc1ccccc1C#N` [Compound 9, 2-(2-(2-Hexynylphenyl)ethynyl)benzonitrile], for which the “IC50 Values of Cytotoxicities” value in data set [7] is listed as “— (“—” means IC50 > 20 μg/ml)”.
As to `CCCCCCC#C/C=C\C#Cc1ccc(C(F)(F)F)cc1` [Compound 18, 4-(3-(Z)-Dodecen-1,5-diynyl)trifluoromethylbenzene], the “topo I inhibitor, overall conclusion” value in [6] is listed as “displayed topo I inhibitory activities”.
Take `N#Cc1ccccc1C#CC=CC#Cc1ccccn1` [Compound 27, 2-(6-(2-pyridinyl)-3-hexen-1,5-diynyl)benzonitrile]: the Growth percentage in [1] is listed as 49%; in data set [2], 23* %; in data set [3] it was 83%. Also, the “accumulation of G2/M stage cells” value in [8] is “an accumulation of G2/M stage cells”. Moreover, the GI50 amounted to 12.8 µM in data set [9]; 19.6 µM in data set [10]; 20.9 µM in [12]; 14.2 µM in data set [13]; 27.3 µM in data set [14]; 21.7 µM in data set [15]. In addition, the GI50 in data set [16] came to 21.2 µM; in data set [17], 14.3 µM.

As usually defined, the pIC50 is the IC50 on a negative log10 scale, so that one unit is a factor of ten. A word on the IC50: it is the concentration that inhibits the measured activity by half.
